Laboratory results as given in PubChem BioAssay (NCI).
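Interpolation was linear, between the two tested concentrations surrounding the appropriate level; five concentrations were tested over 48 hours in 96-well plates. The concentration for full growth arrest is given as TGI.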

Key:
Test in all cases: NCI anticancer screen, dose series, 48 h
KM12 colon = test system: KM12 colon
CAKI-1 renal = test system: CAKI-1 renal
A549 NSCLC = test system: A549 NSCLC
RXF 393 renal = test system: RXF 393 renal
HL-60(TB) leukemia = test system: HL-60(TB) leukemia
HS 578T breast = test system: HS 578T breast
OVCAR-4 ovarian = test system: OVCAR-4 ovarian
MCF7 breast = test system: MCF7 breast
SNB-75 CNS = test system: SNB-75 CNS
K-562 leukemia = test system: K-562 leukemia
MDA-N = test system: MDA-N
A498 renal = test system: A498 renal
SF-295 CNS = test system: SF-295 CNS
SNB-19 CNS = test system: SNB-19 CNS
NCI-H460 lung = test system: NCI-H460 lung
OVCAR-8 ovarian = test system: OVCAR-8 ovarian
IGROV1 ovarian = test system: IGROV1 ovarian
HCC-2998 colon = test system: HCC-2998 colon
NCI/ADR-RES ovarian = test system: NCI/ADR-RES ovarian
SR leukemia = test system: SR leukemia
SW-620 colon = test system: SW-620 colon
HCT-116 colon = test system: HCT-116 colon
SF-268 CNS = test system: SF-268 CNS
SK-OV-3 ovarian = test system: SK-OV-3 ovarian
MOLT-4 leukemia = test system: MOLT-4 leukemia
EKVX NSCLC = test system: EKVX NSCLC
HOP-62 NSCLC = test system: HOP-62 NSCLC
DU-145 prostate = test system: DU-145 prostate
SK-MEL-2 melanoma = test system: SK-MEL-2 melanoma
ACHN renal = test system: ACHN renal
SN12C renal = test system: SN12C renal
RPMI-8226 leukemia = test system: RPMI-8226 leukemia
BT-549 breast = test system: BT-549 breast
COLO 205 colon = test system: COLO 205 colon
PC-3 prostate = test system: PC-3 prostate
CCRF-CEM leukemia = test system: CCRF-CEM leukemia
UACC-62 melanoma = test system: UACC-62 melanoma
MDA-MB-231 breast = test system: MDA-MB-231 breast
UO-31 renal = test system: UO-31 renal
U251 CNS = test system: U251 CNS
SK-MEL-28 melanoma = test system: SK-MEL-28 melanoma
T-47D breast = test system: T-47D breast
TK-10 renal = test system: TK-10 renal
786-0 renal = test system: 786-0 renal
SF-539 CNS = test system: SF-539 CNS
MDA-MB-435 = test system: MDA-MB-435
M14 melanoma = test system: M14 melanoma
HT29 colon = test system: HT29 colon
SK-MEL-5 melanoma = test system: SK-MEL-5 melanoma
OVCAR-3 ovarian = test system: OVCAR-3 ovarian
HOP-92 NSCLC = test system: HOP-92 NSCLC
LOX IMVI melanoma = test system: LOX IMVI melanoma
UACC-257 melanoma = test system: UACC-257 melanoma
HCT-15 colon = test system: HCT-15 colon
OVCAR-5 ovarian = test system: OVCAR-5 ovarian
NCI-H23 lung = test system: NCI-H23 lung
NCI-H522 lung = test system: NCI-H522 lung
MALME-3M melanoma = test system: MALME-3M melanoma

What does the source list for Oc1ccc(/C=C/c2ccc3cccc(O)c3n2)cc1O?
TGI (KM12 colon): 33 µM; TGI (CAKI-1 renal): > 100 µM; TGI (A549 NSCLC): 27.8 µM; TGI (RXF 393 renal): 7.4 µM; TGI (HL-60(TB) leukemia): > 100 µM; TGI (HS 578T breast): > 100 µM; TGI (OVCAR-4 ovarian): > 100 µM; TGI (MCF7 breast): 93.7 µM; TGI (SNB-75 CNS): 9.65 µM; TGI (K-562 leukemia): > 100 µM; TGI (MDA-N): 44.7 µM; TGI (A498 renal): 30 µM; TGI (SF-295 CNS): 76.9 µM; TGI (SNB-19 CNS): 20.9 µM; TGI (NCI-H460 lung): 13.9 µM; TGI (OVCAR-8 ovarian): > 100 µM; TGI (IGROV1 ovarian): > 100 µM; TGI (HCC-2998 colon): 26.9 µM; TGI (NCI/ADR-RES ovarian): 2.56 µM; TGI (SR leukemia): 18.6 µM; TGI (SW-620 colon): > 100 µM; TGI (HCT-116 colon): 14.5 µM; TGI (SF-268 CNS): > 100 µM; TGI (SK-OV-3 ovarian): > 100 µM; TGI (MOLT-4 leukemia): 21.5 µM; TGI (EKVX NSCLC): 30.8 µM; TGI (HOP-62 NSCLC): 84.6 µM; TGI (DU-145 prostate): 12.3 µM; TGI (SK-MEL-2 melanoma): 36 µM; TGI (ACHN renal): 20.7 µM; TGI (SN12C renal): 12.8 µM; TGI (RPMI-8226 leukemia): 78 µM; TGI (BT-549 breast): 4.03 µM; TGI (COLO 205 colon): 29.6 µM; TGI (PC-3 prostate): 67.6 µM; TGI (CCRF-CEM leukemia): > 100 µM; TGI (UACC-62 melanoma): 23.8 µM; TGI (MDA-MB-231 breast): 62.8 µM; TGI (UO-31 renal): 7.71 µM; TGI (U251 CNS): 20.6 µM; TGI (SK-MEL-28 melanoma): 89.5 µM; TGI (T-47D breast): 6.52 µM; TGI (TK-10 renal): 90.8 µM; TGI (786-0 renal): 50.9 µM; TGI (SF-539 CNS): 9.46 µM; TGI (MDA-MB-435): > 100 µM; TGI (M14 melanoma): 7.46 µM; TGI (HT29 colon): 37.7 µM; TGI (SK-MEL-5 melanoma): 13.4 µM; TGI (OVCAR-3 ovarian): 46 µM; TGI (HOP-92 NSCLC): > 100 µM; TGI (LOX IMVI melanoma): 16.5 µM; TGI (UACC-257 melanoma): 47.3 µM; TGI (HCT-15 colon): > 100 µM; TGI (OVCAR-5 ovarian): 46.3 µM

N#Cc1[nH]c(=O)n(-c2cccc3ccccc23)c1N was tested. Which TGI (KM12 colon) did it give?
Its TGI is greater than 10 µM.

What about the TGI (CAKI-1 renal) of the same compound?
Its TGI is greater than 10 µM.

And the TGI (A549 NSCLC)?
The TGI was greater than 10 µM.

And the TGI (RXF 393 renal)?
The TGI was greater than 10 µM.

And the TGI (HL-60(TB) leukemia)?
Its TGI is greater than 10 µM.

What about the TGI (HS 578T breast) of the same compound?
The TGI was greater than 10 µM.

And the TGI (OVCAR-4 ovarian)?
Its TGI is greater than 10 µM.

And the TGI (MCF7 breast)?
Its TGI is greater than 10 µM.

What about the TGI (K-562 leukemia) of the same compound?
The TGI was greater than 10 µM.

What about the TGI (MDA-N) of the same compound?
The TGI was greater than 10 µM.

What about the TGI (A498 renal) of the same compound?
Its TGI is greater than 10 µM.

What about the TGI (SF-295 CNS) of the same compound?
The TGI was greater than 10 µM.

And the TGI (SNB-19 CNS)?
Its TGI is greater than 10 µM.

And the TGI (NCI-H460 lung)?
Its TGI is greater than 10 µM.

And the TGI (OVCAR-8 ovarian)?
The TGI was greater than 10 µM.

What about the TGI (IGROV1 ovarian) of the same compound?
The TGI was greater than 10 µM.

And the TGI (HCC-2998 colon)?
Its TGI is greater than 10 µM.

And the TGI (NCI/ADR-RES ovarian)?
Its TGI is greater than 10 µM.

And the TGI (SR leukemia)?
Its TGI is greater than 10 µM.

What about the TGI (NCI-H23 lung) of the same compound?
Its TGI is greater than 10 µM.

What about the TGI (SW-620 colon) of the same compound?
Its TGI is greater than 10 µM.

And the TGI (HCT-116 colon)?
Its TGI is greater than 10 µM.

What about the TGI (SF-268 CNS) of the same compound?
Its TGI is greater than 10 µM.

What about the TGI (SK-OV-3 ovarian) of the same compound?
Its TGI is greater than 10 µM.

What about the TGI (MOLT-4 leukemia) of the same compound?
Its TGI is greater than 10 µM.

What about the TGI (EKVX NSCLC) of the same compound?
The TGI was greater than 10 µM.

What about the TGI (NCI-H522 lung) of the same compound?
The TGI was greater than 10 µM.

What about the TGI (HOP-62 NSCLC) of the same compound?
Its TGI is greater than 10 µM.

And the TGI (DU-145 prostate)?
Its TGI is greater than 10 µM.

What about the TGI (SK-MEL-2 melanoma) of the same compound?
The TGI was greater than 10 µM.

What about the TGI (ACHN renal) of the same compound?
The TGI was greater than 10 µM.

And the TGI (SN12C renal)?
The TGI was greater than 10 µM.

And the TGI (RPMI-8226 leukemia)?
The TGI was greater than 10 µM.

What about the TGI (BT-549 breast) of the same compound?
The TGI was greater than 10 µM.

And the TGI (COLO 205 colon)?
The TGI was greater than 10 µM.

What about the TGI (PC-3 prostate) of the same compound?
The TGI was greater than 10 µM.

What about the TGI (CCRF-CEM leukemia) of the same compound?
Its TGI is greater than 10 µM.

And the TGI (UACC-62 melanoma)?
The TGI was greater than 10 µM.

And the TGI (MDA-MB-231 breast)?
The TGI was greater than 10 µM.

And the TGI (U251 CNS)?
The TGI was greater than 10 µM.

What about the TGI (SK-MEL-28 melanoma) of the same compound?
The TGI was greater than 10 µM.

And the TGI (T-47D breast)?
The TGI was greater than 10 µM.

And the TGI (TK-10 renal)?
Its TGI is greater than 10 µM.

And the TGI (786-0 renal)?
The TGI was greater than 10 µM.

And the TGI (SF-539 CNS)?
The TGI was greater than 10 µM.

What about the TGI (MDA-MB-435) of the same compound?
The TGI was greater than 10 µM.

And the TGI (M14 melanoma)?
Its TGI is greater than 10 µM.

What about the TGI (HT29 colon) of the same compound?
The TGI was greater than 10 µM.

What about the TGI (SK-MEL-5 melanoma) of the same compound?
Its TGI is greater than 10 µM.

And the TGI (OVCAR-3 ovarian)?
The TGI was greater than 10 µM.

What about the TGI (LOX IMVI melanoma) of the same compound?
Its TGI is greater than 10 µM.

What about the TGI (UACC-257 melanoma) of the same compound?
Its TGI is greater than 10 µM.

And the TGI (MALME-3M melanoma)?
The TGI was greater than 10 µM.

And the TGI (HCT-15 colon)?
The TGI was greater than 10 µM.

What about the TGI (OVCAR-5 ovarian) of the same compound?
The TGI was greater than 10 µM.
